Experiments:
nitrilase bll6402 [1] = target: T1, nitrilase bll6402 (Bradyrhizobium diazoefficiens, UniProt Q89GE3); test: Selective hydrolysis of dinitriles to cyanocarboxylic acids; format: biochemical, Bradyrhizobium japonicum USDA110; settings: selective hydrolysis of dinitrile
Text: Because of the synthetic importance of selective hydrolysis of dinitriles to […], nitrilase bll6402 was studied toward the hydrolysis of a series of dinitriles (e.g., scheme 6). [drawing 6]
The selectivity was not dependent on the chain length. This was different from the results obtained with nitrilases from Arabidopsis thaliana, acidovorax facilis 72W and cyanobacterium Synechocystis sp. strain PCC 6803, in which di-acids were obtained as the chain length increased.

nitrilase bll6402 [2] = target: T1, nitrilase bll6402; test: Substrate specificity: specific/relative activity by ammonia release; format: biochemical, Bradyrhizobium japonicum USDA110; settings: for Relative Activity: 25 mM substrate, pH 7.2, 30° C., phenylacetonitrile defined as 100
Method: The standard assays were carried out by mixing the substrate nitrile and purified nitrilase enzyme in potassium phosphate buffer (100 mM, pH 7.2). The reaction mixture was incubated at 30° C. Samples (100 μL) of the reaction mixture were withdrawn at several time intervals and quenched with 10 μl of 1 M HCl. The amount of ammonia produced in the reaction was measured using Bertholet assay as follows: A 100 μL aliquot of each of the following assay reagents was added subsequently: 0.02 M NaOCl, 0.33 M sodium phenoxide and 0.01% sodium nitroprusside solution. The mixture was then heated at 95° C. for 2 min, cooled rapidly in ice-water bath, and 200 μl of the mixture was then placed in a 96-well plate to measure the absorbance at 640 nm using SpectraMax M2 microplate reader (Molecular Devices). The amount of ammonia released during the hydrolysis was calculated by comparison with the standard curve obtained with standard ammonium chloride solution, and the activity was defined as the number of μmol of ammonia produced in 1 minute by 1 mg of enzyme (μmol·min^−1·mg^−1). To determine the kinetic parameters of the purified protein for mandelonitrile, activity assays were performed with different substrate concentrations, and Vmax and Km were calculated by best fitting the curve to experimental data according to Michaelis equation.
The specific activities of nitrilase bll6402 toward 24 different nitrites with structural diversity were measured by the quantification of the amount of ammonia released during the hydrolysis. A reaction mixture containing 20 or 40 μg of purified bll6402 enzyme, 25 mM substrate in potassium phosphate buffer (1 ml, 100 mM, pH 7.2) was incubated at 30° C. The conversion was determined by measuring the amount of ammonia produced in the reaction using Bertholet assay as described above.

nitrilase bll6402 [3] = target: T1, nitrilase bll6402; test: Regioselective hydrolysis of 1-cyanocycloalkaneacetonitriles; format: biochemical, Bradyrhizobium japonicum USDA110; settings: 200 mg dinitrile, 10 mg nitrilase, pH 7.2, 30° C.
Method: The general procedure was followed: 1-Cyanocycloalkaneacetonitiles (200 mg) was treated with the nitrilase (10 mg) in potassium phosphate buffer (50 ml, 100 mM, pH=7.2). The reaction mixture was incubated at 30° C. and monitored by ^13C NMR. When dinitrile was consumed, the mixture was acidified with 1 N HCl solution to pH˜5, saturated with NaCl and extracted with ethyl acetate. The organic extract was dried over anhydrous sodium sulfate. Removal of solvent provided the desired product, which was further purified by preparative TLC using ethyl acetate-hexane (35/65, v/v) as eluting solvent.

nitrilase bll6402 [4] = target: T1, nitrilase bll6402; test: Enantioselective hydrolysis of β-hydroxy nitriles; format: biochemical, Bradyrhizobium japonicum USDA110
Method: β-Hydroxy nitrites were prepared by the cyanization of α-bromoketones with sodium cyanide followed by NaBH4 reduction. The obtained β-hydroxy nitrites were treated with purified nitrilase bll6402 in potassium phosphate buffer (100 mM, pH 7.0), and the reaction mixture was incubated overnight at 30° C. The mixture was then saturated with NaCl and extracted with ethyl acetate. The extract was dried over sodium sulfate, and evaporation of the solvent under reduced pressure afforded the crude products. The β-hydroxy carboxylic acids were separated from unreacted β-hydroxy nitrites by preparative thin-layer chromatography.
The ee values of both the product acids and the recovered nitrites were measured by chiral HPLC analysis, and their absolute configurations were determined by comparing the sign of optical rotation with the literature data. The enantiomeric ratios (E) were calculated using the equations proposed by Sih et al. (J. Am. Chem. Soc. 1982, 104, 7294-7299). The results are presented in Table 6 together with the data for the hydrolysis of mandelonitrile under the same conditions.

[5] = tested on: arylacetonitrilases from Alcaligenes faecalis ATCC8750 and JM3; settings: known arylacetonitrilases; cited from earlier work
nitrilase bll6402 [6] = target: T1, nitrilase bll6402; test: Hydrolysis of aromatic α-hydroxy nitriles, conversion by HPLC; format: biochemical, Bradyrhizobium japonicum USDA110; settings: 25 mM nitrile, 0.16 mg nitrilase in 1 mL, pH 7.2, overnight at 30° C.
Method: To further characterize the efficiency of nitrilase b116402 to catalyze the hydrolysis of mandelonitrile derivatives to the corresponding carboxylic acids, the hydrolysis of several aromatic α-hydroxy nitrites were carried out and the product carboxylic acids were characterized by HPLC analysis. An example procedure was as follows: aromatic α-hydroxynitriles (25 mM) were treated with 0.16 mg nitrilase bll6402 in 1 mL of potassium phosphate buffer (100 mM, pH 7.2). The reaction mixture was incubated overnight at 30° C. A sample was withdrawn and analyzed by HPLC (column: Agilent C8, eluent: MeOH:H2O=20:80, flow rate: 1 mL/min, detector: 254 nm) and the products were identified by comparison with the authentic standards.

nitrilase bll6402 [7] = target: T1, nitrilase bll6402; format: biochemical, Bradyrhizobium japonicum USDA110; settings: pH 7.2
[8] = Effects of temperature, pH and organic solvents on nitrilase activity; format: biochemical; settings: 30% (v/v) of hexane, tert-butyl methyl ether or toluene; 30° C., pH 7.1, 4 hours
Method: For the determination of temperature effect, a mixture of nitrilase (0.5 mg) with benzyl cyanide (50 mM) in 1.0 ml of potassium phosphate buffer (100 mM, pH 7.1) was incubated at 25° C., 30° C., 37° C. and 45° C., respectively. Aliquots (100 μl) were taken after 1, 2, 4, and 16 hrs intervals, and acidified with 10 μl of 1M HC1. The formed phenylacetic acid was extracted into 200 μl of tert-butyl methyl ether, dried over anhydrous sodium sulfate, and quantified by GC analysis after converting to methyl ester with diazomethane.
The pH effect was studied using the following buffer: sodium citrate buffer (pH 4.91 and 5.44), potassium phosphate buffer (pH 6.07, 6.52, 7.10, 7.58, 7.98 and 8.49) and sodium bicarbonate buffer (pH 8.98). A mixture of nitrilase (0.5 mg) with benzyl cyanide (50 mM) in 1.0 ml of the respective buffer (100 mM) was incubated at 30° C. […] The formed phenylacetic acid was extracted into 200 μl of tert-butyl methyl ether, dried over anhydrous sodium sulfate, and quantified by GC analysis after converting to methyl ester with diazomethane.
The organic solvent effects were evaluated with dimethyl sulfoxide (DMSO), tert-butyl methyl ether, hexane, toluene and butyl acetate. […] The formed phenylacetic acid was extracted into 1 ml of tert-butyl methyl ether, dried over anhydrous sodium sulfate, and quantified by GC analysis after converting to methyl ester with diazomethane.

[9] = pH 7.0, overnight at 30° C., isolated yield

T1 sequence (Q89GE3 whole entry, looked up): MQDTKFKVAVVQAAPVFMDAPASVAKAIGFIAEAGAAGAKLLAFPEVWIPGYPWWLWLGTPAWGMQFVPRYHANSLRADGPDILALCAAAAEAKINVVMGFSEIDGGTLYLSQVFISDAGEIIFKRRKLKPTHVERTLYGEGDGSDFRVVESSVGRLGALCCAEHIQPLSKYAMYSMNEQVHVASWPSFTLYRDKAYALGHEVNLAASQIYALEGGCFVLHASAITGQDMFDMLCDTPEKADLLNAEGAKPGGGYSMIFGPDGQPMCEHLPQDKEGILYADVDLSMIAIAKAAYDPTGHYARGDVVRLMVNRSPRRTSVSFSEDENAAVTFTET

Row | Compound | Relative Activity (nitrilase bll6402 [2]) | further results
1 | N#CCCCCC#N [1,4-Dicyanobutane] | 5 | Yield (%) of cyanocarboxylic acid (nitrilase bll6402 [1]): 97%
2 | N#CCCCCCC#N [1,5-Dicyanopentane] |  | Yield (%) of cyanocarboxylic acid (nitrilase bll6402 [1]): 90%
3 | N#CCCCCCCC#N [1,6-Dicyanohexane] |  | Yield (%) of cyanocarboxylic acid (nitrilase bll6402 [1]): 88%
4 | N#CCC1(C#N)CCCCC1 [1-cyancyclohexaneacetonitrile] |  | isolated yield of corresponding cyanocarboxylic acid (nitrilase bll6402 [3]): 88%
5 | N#CCC1(C#N)CCCCCC1 [1-cyanocycloheptaneacetonitrile] |  | isolated yield of corresponding cyanocarboxylic acid (nitrilase bll6402 [3]): 54%
6 | N#CCC1(C#N)CCCC1 [1-cyanocyclopentaneacetonitrile] |  | isolated yield of corresponding cyanocarboxylic acid (nitrilase bll6402 [3]): 92%
7 | CC(C#N)CCC#N (stereo not drawn) [2-Methylglutaronitrile] | 3 | 
8 | N#CC(N)c1ccccc1 (stereo not drawn) [2-Phenylglycinonitrile] | 3 | 
9 | N#CCCN [3-Aminopropionitrile] | 1 | 
10 | N#CCCO [3-Hydroxypropionitrile] | 1 | 
11 | N#CCc1c[nH]c2ccccc12 [3-Indolylacetonitrile] | 2 | 
12 | CC(CC#N)c1ccccc1 (stereo not drawn) [3-phenylbutyronitrile] |  | hydrolysis by nitrilase bll6402 (result in words) (nitrilase bll6402 [4]; same conditions as β-hydroxy nitriles): not hydrolyzed
13 | CC(=O)c1ccc(C#N)cc1 [4-Acetylbenzonitrile] | 2 | 
14 | N#CCCCCl [4-Chlorobutyronitrile] | 6 | 
15 | N#CCCCc1ccccc1 [4-Phenylbutyronitrile] | 4 | 
16 | C=CCC#N [Allyl cyanide] | 2 | 
17 | N#Cc1ccccc1 [Benzonitrile] | 1 | 
18 | CC=CC#N [Crotononitrile] | 3 | 
19 | N#C/C=C/C#N [Fumaronitrile] |  | Yield (%) of cyanocarboxylic acid (nitrilase bll6402 [1]): 84%

Row | Compound | Relative Activity (nitrilase bll6402 [2]) | further results
20 | N#CCCCC#N [Glutaronitrile] |  | Yield (%) of cyanocarboxylic acid (nitrilase bll6402 [1]): 93%
21 | CCCCCCC#N [Heptanenitrile] | 22 | 
22 | CCCCCC#N [Hexanenitrile] | 16 | 
23 | N#CCCc1ccccc1 [Hydrocinnamonitrile] | 13 | 
24 | N#CC(O)c1ccccc1 (stereo not drawn) [Mandelonitrile] | 460 | activity as % of that for phenylacetonitrile [5]: 12-15%; Conversion(%) (nitrilase bll6402 [6]): 98%; activity relative to that of phenylacetonitrile (nitrilase bll6402 [2]; hydrolysis by nitrilase bll6402): 4.6 times; product acid (S)-2 ee (%) (nitrilase bll6402 [4]; pH 7.0, overnight at 30° C., chiral HPLC): 0%; product acid (S)-2 yield (%) (nitrilase bll6402 [4]; [9]): 98%; recovered nitrile (R)-1 yield (%) (nitrilase bll6402 [4]; [9]): 0%
25 | CSCC#N [Methylthioacetonitrile] | 1 | Yield (%) of product carboxylic acid (nitrilase bll6402 [7]): 96%
26 | N#CCc1ccccc1 [Phenylacetonitrile] | 100 | 
27 | N#CCCCCCCCCC#N [Sebeconitrile] |  | Yield (%) of cyanocarboxylic acid (nitrilase bll6402 [1]): 88%
28 | N#CCCC#N [Succinonitrile] |  | Yield (%) of cyanocarboxylic acid (nitrilase bll6402 [1]): 97%
29 | CCCCC#N [Valeronitrile] | 6 | 
30 | CCCC#N [n-Butyronitrile] | 3 | Yield (%) of product carboxylic acid (nitrilase bll6402 [7]): 61%
31 | CC(C)(C#N)C#N [α,α-Dimethylmalononitrile] |  | Yield (%) of cyanocarboxylic acid (nitrilase bll6402 [1]): 93%
32 | N#CC(O)c1cccc(O)c1 (stereo not drawn) [α-Hydroxy-α-(m-hydroxyphenyl)acetonitrile] |  | Conversion(%) (nitrilase bll6402 [6]): 94%
33 | N#CC(O)c1ccc(O)cc1 (stereo not drawn) [α-Hydroxy-α-(p-hydroxyphenyl)acetonitrile] |  | Conversion(%) (nitrilase bll6402 [6]): 88%
34 | CN(C)C(C#N)c1ccccc1 (stereo not drawn) [α-N,N-Dimethylaminophenylacetonitrile] | 1 | 
35 | CCC(C#N)c1ccccc1 (stereo not drawn) [α-Phenylbutyronitrile] | 8 | 
36 | C[Si](C)(C)OC(C#N)c1ccccc1 (stereo not drawn) [α-Trimethylsilyloxyphenylacetonitrile] | 165 | Conversion(%) (nitrilase bll6402 [6]): 99%
37 | CC(C#N)c1ccccc1 (stereo not drawn) [α-phenylpropionitrile] | 10 | 
38 | nitrilase bll6402: nitrilase (mandelonitrile hydrolase) from Bradyrhizobium japonicum USDA110, amino acid SEQ ID NO: 2, expressed in E. coli |  | retained activity in biphasic systems [8]: more than 70%
